Experimental data: US8222244B2, “Staurosporine derivatives as inhibitors of FLT3 receptor tyrosine kinase activity” (Novartis AG, priority 2001, dated 2012)

Molecular target: T1, human Flt-3 (Homo sapiens, UniProt P36888)
T1 construct: expresses the amino acid region amino acids 563-993 of the intra-cytoplasmic kinase domains of human Flt-3; made in house; host or cells: Sf9 insect cells (baculovirus, pFbacG01 donor vector)
T1 sequence (P36888 563-993): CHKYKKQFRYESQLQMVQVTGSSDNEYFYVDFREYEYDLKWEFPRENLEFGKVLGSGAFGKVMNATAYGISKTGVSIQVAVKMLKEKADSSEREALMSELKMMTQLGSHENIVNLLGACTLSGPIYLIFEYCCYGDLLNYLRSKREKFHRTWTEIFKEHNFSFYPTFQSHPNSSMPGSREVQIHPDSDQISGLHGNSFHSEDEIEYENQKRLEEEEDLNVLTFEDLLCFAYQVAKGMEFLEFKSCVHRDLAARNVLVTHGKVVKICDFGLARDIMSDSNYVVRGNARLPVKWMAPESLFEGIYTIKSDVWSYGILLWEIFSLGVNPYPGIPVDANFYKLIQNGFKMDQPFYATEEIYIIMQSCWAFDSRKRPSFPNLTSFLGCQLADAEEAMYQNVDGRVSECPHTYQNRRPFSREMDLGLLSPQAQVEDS
Assay: Tyrosine protein kinase assay with purified GST-Flt-3 (33P incorporation)
Format: biochemical
Conditions: at a 1.0 micromolar concentration
Experimental: ATP into appropriate substrates.
The coding sequences for the cytoplasmic domain of Flt-3 was amplified by PCR from human c-DNA libraries (Clontech). The amplified DNA fragments and the pFbacG01 vector were made compatible for ligation by digestion with BamH1 and Hind III. […] The production of the viruses, the expression of proteins in Sf9 cells and the purification of the GST-fused proteins were performed as following:
(Generation of Bac- to Bac GST-fusion vectors); pFbacG01, pFbacGST2T and pFbacGSTx3 Bac-to-Bac™ donor vectors were generated from pAcG1, pAcG2T and pAcG3X respectively, which facilitate the expression of GST-fusion proteins with the possibility of cleavage with thrombin (pFbacGT2) or factor Xa (pFbacGSTx3) while pFbacG01 expresses no proteolytic cleavage site. These were generated in house by isolation of the DNA fragment containing the gene for GST with the C-terminal protease and restriction sites by restriction enzyme digestion of the relevant PharMingen baculovirus donor vector with EcoRV and EcoRI. This EcoRV/EcoRI fragment was ligated into the pFastBac1 vector which had been restriction digested with BamHI, blunt-ended by Klenow reaction and subsequently digested with EcoRI to generate a blunt-ended/EcoRI vector. (Production of virus); Transfer vectors containing the kinase domains were transfected into the DH10Bac cell line (GIBCO) and plated on selective agar plates. Colonies without insertion of the fusion sequence into the viral genome (carried by the bacteria) are blue. Single white colonies were picked and viral DNA (bacmid) isolated from the bacteria by standard plasmid purification procedures. Sf9 cells or Sf21 cells were then transfected in 25 cm^2 flasks with the viral DNA using Cellfectin reagent. (Determination of small scale protein expression in Sf9 cells); Virus containing media was collected from the transfected cell culture and used for infection to increase its titer. Virus containing media obtained after two rounds of infection was used for large-scale protein expression. For large-scale protein expression 100 cm^2 round tissue culture plates were seeded with 5×10^7 cells/plate and infected with 1 mL of virus-containing media (approx. 5 MOIs). After 3 days the cells were scraped off the plate and centrifuged at 500 rpm for 5 min. Cell pellets from 10-20, 100 cm^2 plates, were resuspended in 50 mL of ice-cold lysis buffer (25 mMTris-HCl, pH7.5, 2 mMEDTA, 1% NP-40, 1 mM DTT, 1 mMP MSF). The cells were stirred on ice for 15 min and then centrifuged at 5000 rpms for 20 min.
ATP 0.1 μCi). […] ATP into appropriate substrates. […] Subsequently, 40 μL of the reaction mixture were transferred onto Immobilon-PVDF membrane (Millipore, Bedford, Mass., USA) previously soaked for 5 min with methanol, rinsed with water, then soaked for 5 min with 0.5% H3PO4 and mounted on vacuum manifold with disconnected vacuum source. After spotting all samples, vacuum was connected and each well rinsed with 200 μL 0.5% H3PO4. Membranes were removed and washed 4× on a shaker with 1.0% H3PO4, once with ethanol. Membranes were counted after drying at ambient temperature, mounting in Packard TopCount 96-well frame, and addition of 10 μL/well of Microscint™ (Packard). […] One unit of protein kinase activity is defined as 1 nmole of ^33P ATP transferred from [γ^33P] ATP to the substrate protein per minute per mg of protein at 37° C.

Flt3 Inhibition (percent inhibition of Flt3 kinase activity) [%] | Compound
66 | COC1C(N(C)C(=O)C(F)(F)F)CC2OC1(C)n1c3ccccc3c3c4c(c5c6ccccc6n2c5c31)C(=O)NC4 [120685-12-3, 2,2,2-Trifluoro-N-[(9S,10R,11R,13R)-2,3,10,11,12,13-hexahydro-10-methoxy-9-methyl-1-oxo-9,13-epoxy-1H,9H-diindolo[1,2,3-gh:3′,2′,1′-lm]pyrrolo[3,4-j][1,7]benzodiazonin-11-yl]-N-methyl-acetamide]
93 | (9a,10b,11b,13a)-11-[(N-Acetyl-6-O-acetyl-1-deoxymuramoyl)methylamino]-2,3,10,11,12,13-hexahydro-10-methoxy-9-methyl-, 11-[(N-acetyl-6-O-acetyl-1-deoxymuramoyl)methylamino]-2,3,10,11,12,13-hexahydro-10-methoxy-9-methyl-9,13-epoxy-1H,9H-diindolo[1,2,3-gh:3′,2′,1′-lm]pyrrolo[3,4-j][1,7]benzodiazonin-1-one [149622-68-4]
100 | (9a,10b,11b,13a)-11-[(N-Acetyl-6-amino-6-deoxy-a-isomuramoyl)methylamino]-2,3,10,11,12,13-hexahydro-10-methoxy-9-methyl-9,13-epoxy-1H,9H-diindolo[1,2,3-gh:3′,2′,1′-lm]pyrrolo[3,4-j][1,7]benzodiazonin-1-one [149622-56-0]
76 | [9a,10b,11b(S*),13a]-2-(Acetylamino)-2-deoxy-3-O-[1-[[(2,3,10,11,12,13-hexahydro-10-methoxy-9-methyl-1-oxo-9,13-epoxy-1H,9H-diindolo[1,2,3-gh:3′,2′,1′-lm]pyrrolo[3,4-j][1,7]benzodiazonin-11-yl)methylamino]carbonyl]propyl]-a-D-Glucopyranose [149622-60-6]
51 | (9a,10b,11b,13a)-11-[[N-Acetyl-6-O-(methylsulfonyl)-1-O-(phenylmethyl)-a-muramoyl]methylamino]-2,3,10,11,12,13-hexahydro-10-methoxy-9-methyl-, 9,13-epoxy-1H,9H-diindolo[1,2,3-gh:3′,2′,1′-lm]pyrrolo[3,4-j][1,7]benzodiazonin-1-one [149622-41-3]
98 | (9a,10b,11b,13a)-11-[(N-Acetyl-1-deoxymuramoyl)methylamino]-2,3,10,11,12,13-hexahydro-10-methoxy-9-methyl-9,13-epoxy-1H,9H-diindolo[1,2,3-gh:3′,2′,1′-lm]pyrrolo[3,4-j][1,7]benzodiazonin-1-one [149622-63-9]

More lines, now with the values behind:

Compound | Flt3 Inhibition (percent inhibition of Flt3 kinase activity) [%]
COC1C(N(C)C(=O)c2cccnc2)CC2OC1(C)n1c3ccccc3c3c4c(c5c6ccccc6n2c5c31)C(=O)NC4 (stereo not drawn) [155848-16-1, [9S-(9a,10b,11b,13a)]-N-(2,3,10,11,12,13-Hexahydro-10-methoxy-9-methyl-1-oxo-9,13-epoxy-1H,9H-diindolo[1,2,3-gh:3′,2′,1′-lm]pyrrolo[3,4-g][1,7]benzodiazonin-11-yl)-N-methyl-3-pyridinecarboxamide] | 89
COC1C(N(C)C(=O)c2ccc(F)cc2)CC2OC1(C)n1c3ccccc3c3c4c(c5c6ccccc6n2c5c31)C(=O)NC4 (stereo not drawn) [120685-44-1, (9a,10b,11b,13a)-4-Fluoro-N-(2,3,10,11,12,13-hexahydro-10-methoxy-9-methyl-1-oxo-9,13-epoxy-1H,9H-diindolo[1,2,3-gh:3′,2′,1′-lm]pyrrolo[3,4-j][1,7]benzodiazonin-11-yl)-N-methyl-benzamide] | 55
COC1C([N+](C)(C)C)CC2OC1(C)n1c3ccccc3c3c4c(c5c6ccccc6n2c5c31)C(=O)NC4.[I-] (stereo not drawn) [120685-26-9, [9S-(9a,10b,11b,13a)]-2,3,10,11,12,13-Hexahydro-10-methoxy-N,N,N,9-tetramethyl-1-oxo-9,13-epoxy-1H,9H-diindolo[1,2,3-gh:3′,2′,1′-lm]pyrrolo[3,4-j][1,7]benzodiazonin-11-aminium iodide] | 97
COC1C(=O)CC2OC1(C)n1c3ccccc3c3c4c(c5c6ccccc6n2c5c31)C(=O)NC4 [178276-05-6, (9S,10S,13R)-2,3,9,10,12,13-Hexahydro-10-methoxy-9-methyl-9,13-epoxy-1H,11H-diindolo[1,2,3-gh:3′,2′,1′-lm]pyrrolo[3,4-j][1,7]benzodiazonine-1,11-dione] | 88
11-[[N-Acetyl-1-deoxy-4,6-O-(phenylmethylene)muramoyl]methylamino]-2,3,10,11,12,13-hexahydro-10-methoxy-9-methyl-9,13-epoxy-1H,9H-diindolo[1,2,3-gh:3′,2′,1′-lm]pyrrolo[3,4-j][1,7]benzodiazonin-1-one [149622-49-1] | 74
COC1C(N(C)C(=O)c2ccc(C(=O)[O-])cc2)CC2OC1(C)n1c3ccccc3c3c4c(c5c6ccccc6n2c5c31)C(=O)NC4.[Na+] (stereo not drawn) [120751-44-2, [9S-(9a,10b,11b,13a)]-4-[[(2,3,10,11,12,13-Hexahydro-10-methoxy-9-methyl-1-oxo-9,13-epoxy-1H,9H-diindolo[1,2,3-gh:3′,2′,1′-lm]pyrrolo[3,4-j][1,7]benzodiazonin-11-yl)methylamino]carbonyl]-benzoic acid, monosodium salt] | 90
COC1C(N(C)C(=O)c2cccc([N+](=O)[O-])c2)CC2OC1(C)n1c3ccccc3c3c4c(c5c6ccccc6n2c5c31)C(=O)NC4 (stereo not drawn) [120685-15-6, (9a,10b,11b,13a)-N-(2,3,10,11,12,13-Hexahydro-10-methoxy-9-methyl-1-oxo-9,13-epoxy-1H,9H-diindolo[1,2,3-gh:3′,2′,1′-lm]pyrrolo[3,4-j][1,7]benzodiazonin-11-yl)-N-methyl-3-nitro-benzamide] | 74
CO[C@@H]1[C@H](N(C)C(=O)CNC(=O)OC(C)(C)C)C[C@H]2O[C@]1(C)n1c3ccccc3c3c4c(c5c6ccccc6n2c5c31)C(=O)NC4 [124078-43-9, [9S-(9a,10b,11b,13a)]-[2-[(2,3,10,11,12,13-Hexahydro-10-methoxy-9-methyl-1-oxo-9,13-epoxy-1H,9H-diindolo[1,2,3-gh:3′,2′,1′-lm]pyrrolo[3,4-j][1,7]benzodiazonin-11-yl)methylamino]-2-oxoethyl]-carbamic acid, 1,1-dimethylethyl ester] | 65
CO[C@@H]1[C@H](N(C)C(=O)OC(C)(C)C)C[C@H]2O[C@]1(C)n1c3ccccc3c3c4c(c5c6ccccc6n2c5c31)C(=O)NC4 [120685-17-8, [9S-(9a,10b,11b,13a)]-(2,3,10,11,12,13-Hexahydro-10-methoxy-9-methyl-1-oxo-9,13-epoxy-1H,9H-diindolo[1,2,3-gh:3′,2′,1′-lm]pyrrolo[3,4-j][1,7]benzodiazonin-11-yl)methyl-carbamic acid, 1,1-dimethylethyl ester] | 33
